According to article PMC12396409, “Screening and hit evaluation of a microbial metabolite library against the pathogenic Plasmodium falciparum and Toxoplasma gondii parasites” (International Journal for Parasitology: Drugs and Drug …, 2025):
Where two headings read alike, the source gives them in different places.

Key:
[1] = tested on: T. gondii RH strain (RH-Tub-eYFP) tachyzoites; experiment: microbe, parasite or virus in culture; type: cell-based, Toxoplasma gondii
[2] = tested on: P. falciparum 3D7 parasites; experiment: P. falciparum growth inhibition assay, 1-cycle (72 h treatment), SYBR DNA staining (library screen at 2 μg/mL and dose-response); type: cell-based, Plasmodium falciparum; settings: for Screen (P. falciparum): 3D7, 72 h, DD from the 120 h timepoint; for activity in the screen against P. falciparum: 2 μg/mL, active = ≥80 % growth inhibition
[3] = tested on: HFF cells
[4] = tested on: P. falciparum 3D7 parasites; experiment: P. falciparum growth inhibition assay, 2-cycle (120 h treatment), delayed-death screen and dose-response; type: cell-based, Plasmodium falciparum; settings: for IC50: 3D7, read-out: IC50, P. falciparum, 120 h dose-response (delayed-death)
[5] = tested on: P. falciparum; settings: cited from earlier work
[6] = tested on: Leishmania; settings: ref Filho et al., 2024; cited from earlier work
[7] = tested on: human neonatal foreskin fibroblast (NFF); experiment: Cytotoxicity screen at 5 μg/mL, resazurin dye assay, 96 h
[8] = 2 μg/mL, 72 h, active = ≥80 % growth inhibition
[9] = Toxoplasma gondii; RH strain, 72 h, mean ± S.D., n ≥ 3; read-out: IC50 (μM), T. gondii (converted)
[10] = Plasmodium falciparum, 3D7; P. falciparum, 2 μg/mL, 72 h; read-out: 1) Growth (%) at 72 h
[11] = Plasmodium falciparum, 3D7, P. falciparum, 72 h, screen at 2 μg/mL, replicate 1, read-out: Pf_72h_%Growth_Rep1
[12] = Plasmodium falciparum, 3D7, P. falciparum, 72 h, screen at 2 μg/mL, replicate 2, read-out: Pf_72h_%Growth_Rep2
[13] = Plasmodium falciparum, 3D7, 72 h treatment, mean ± S.D., n ≥ 3, read-out: IC50 (μM), P. falciparum
[14] = fibroblasts over T. gondii, for cryptopleurine the parasite is not stated
[15] = P. falciparum, growth at 72 h / growth at 120 h, 2 μg/mL
[16] = Plasmodium falciparum, 3D7; P. falciparum, 2 μg/mL, 120 h; read-out: 2) Growth (%) at 120 h
[17] = Plasmodium falciparum, 3D7, P. falciparum, 120 h, screen at 2 μg/mL, replicate 1, read-out: Pf_120h_%Growth_Rep1
[18] = Plasmodium falciparum, 3D7, P. falciparum, 120 h, screen at 2 μg/mL, replicate 2, read-out: Pf_120h_%Growth_Rep2
[19] = library screen at 2 μg/mL, 72 h, % growth, replicate 1
[20] = library screen at 2 μg/mL, 72 h, % growth, replicate 2
[21] = 3D7, 72 h treatment, mean ± S.D., n ≥ 3, read-out: IC50 (μM), P. falciparum
[22] = 72 h treatment, read-out: IC50, P. falciparum
[23] = Toxoplasma gondii, 72 h, library screen at 2 μg/mL, 72 h, % growth, replicate 1; read-out: Tg_72h_%Growth_Rep1
[24] = Toxoplasma gondii, 72 h, library screen at 2 μg/mL, 72 h, % growth, replicate 2; read-out: Tg_72h_%Growth_Rep2
[25] = Plasmodium falciparum, 3D7, library screen at 2 μg/mL, 72 h, % growth, replicate 1, read-out: Pf_72h_%Growth_Rep1
[26] = Plasmodium falciparum, 3D7, library screen at 2 μg/mL, 72 h, % growth, replicate 2, read-out: Pf_72h_%Growth_Rep2
[27] = 48–72 h, ref Wilson et al., 2013, read-out: IC50 at 48–72 h
[28] = Plasmodium falciparum, 3D7, library screen at 2 μg/mL, 120 h, % growth, replicate 1, read-out: Pf_120h_%Growth_Rep1
[29] = Plasmodium falciparum, 3D7, library screen at 2 μg/mL, 120 h, % growth, replicate 2, read-out: Pf_120h_%Growth_Rep2
[30] = Toxoplasma gondii, 72 h, T. gondii, 72 h, parasite screen 2 μg/mL, % growth, replicate 1; read-out: Tg_72h_%Growth_Rep1
[31] = Toxoplasma gondii, 72 h, T. gondii, 72 h, parasite screen 2 μg/mL, % growth, replicate 2; read-out: Tg_72h_%Growth_Rep2
[32] = Plasmodium falciparum, 3D7, P. falciparum, 72 h, parasite screen 2 μg/mL, % growth, replicate 1, read-out: Pf_72h_%Growth_Rep1
[33] = Plasmodium falciparum, 3D7, P. falciparum, 72 h, parasite screen 2 μg/mL, % growth, replicate 2, read-out: Pf_72h_%Growth_Rep2
[34] = Plasmodium falciparum, 3D7, P. falciparum, 120 h, parasite screen 2 μg/mL, % growth, replicate 1, read-out: Pf_120h_%Growth_Rep1
[35] = Plasmodium falciparum, 3D7, P. falciparum, 120 h, parasite screen 2 μg/mL, % growth, replicate 2, read-out: Pf_120h_%Growth_Rep2

C=C[C@]1(C)C[C@@H](OC(=O)CSC(C)(C)CNC(=O)[C@H](N)C(C)C)[C@]2(C)[C@H](C)CC[C@]3(CCC(=O)[C@H]32)[C@@H](C)[C@@H]1O [Valnemulin, reference compound]
activity in the screen against T. gondii [1, 8]: active against T. gondii
percent parasite growth at 2 µg/mL ([1]; Toxoplasma gondii, 72 h, T. gondii, 72 h, screen at 2 μg/mL, replicate 1; read-out: Tg_72h_%Growth_Rep1): 13.1%
percent parasite growth at 2 µg/mL ([1]; Toxoplasma gondii, 72 h, T. gondii, 72 h, screen at 2 μg/mL, replicate 2; read-out: Tg_72h_%Growth_Rep2): 19.6%
IC50 [1, 9]: 0.232 µM
activity at 2 µg/mL [2, 10]: 50.1%
activity at 2 µg/mL [2, 11]: 44.3%
activity at 2 µg/mL [2, 12]: 55.9%
IC50 [2, 13]: > 1 µM
Screen (P. falciparum) ([2]; library screen at 2 μg/mL): DD^
selectivity index [3, 14]: greater than 100
delayed-death activity in the 120 h screen against P. falciparum ([4]; 2 μg/mL, criteria: ≥40 % growth at 72 h, ≤20 % growth at 120 h, at least 5-fold): meeting two of our three criteria for delayed-death activity
3) Fold change (72 h/120 h) [4, 15]: 3.7
IC50 ([4]; Plasmodium falciparum): 64 nM
activity at 2 µg/mL [4, 16]: 13.4%
activity at 2 µg/mL [4, 17]: 15%
activity at 2 µg/mL [4, 18]: 11.8%

COCC(=O)N[C@@H](C(=O)N1NCCC[C@H]1C(=O)N[C@@H](Cc1ccccc1)[C@@H](O)[C@H](C)C(=O)N[C@H]1CCN(C(N)=O)C1=O)[C@H](O)C(C)C [Padanamide A]
activity in the screen against P. falciparum ([2]; 72 h): active against P. falciparum
IC50 ([5]; another study, ref Cheng et al., 2015, read-out: IC50 in P. falciparum): ~200 nM

Beauvericin
Tg_72h_%Growth_Rep1 [1, 19]: 86.72%
Tg_72h_%Growth_Rep2 [1, 20]: 89.12%
IC50 [2, 21]: 0.499 ± 0.029 µM
IC50 [2, 22]: 0.5 µM
Pf_72h_%Growth_Rep1 [2, 19]: 7.31%
Pf_72h_%Growth_Rep2 [2, 20]: 5.24%
reported activity in Leishmania [6]: around 1 μM
Pf_120h_%Growth_Rep1 ([4]; library screen at 2 μg/mL, 120 h, % growth, replicate 1): 4.73%
Pf_120h_%Growth_Rep2 ([4]; library screen at 2 μg/mL, 120 h, % growth, replicate 2): 5.37%

CC(/C=C/C[C@@H](C)/C=C(C)/C=C/[C@@H]1OC(=O)C=C[C@@H]1C)=C\[C@@H](C)C(=O)[C@@H](C)[C@H](O)[C@@H](C)C/C(C)=C/C(=O)O [leptomycin A]
cytotoxic activity in the screen against fibroblasts [7]: cytotoxic activity

Pladienolide B
activity in the screen against T. gondii [1, 8]: active against T. gondii but not P. falciparum
IC50 ([1]; 72 h; read-out: IC50, T. gondii): 0.0067 ± 0.0044 µM
activity in the screen against P. falciparum ([2]; 72 h): active against T. gondii but not P. falciparum
selectivity index [3, 14]: 7
IC50 ([3]; read-out: IC50, cytotoxicity against human fibroblasts, HFF, 72 h): 47 nM

C[C@H]1c2cccc(O)c2C(=O)C2=C(O)[C@]3(O)C(=O)C(C(N)=O)=C(O)[C@@H](N(C)C)[C@@H]3[C@@H](O)[C@@H]21 [Doxycycline, reference compound]
percent parasite growth at 2 µg/mL [1, 23]: 41%
percent parasite growth at 2 µg/mL [1, 24]: 47.5%
activity at 2 µg/mL [2, 10]: 48.6%
activity at 2 µg/mL [2, 25]: 55.3%
activity at 2 µg/mL [2, 26]: 41.9%
IC50 [5, 27]: ≥ 5000 nM
IC50 at more than 96 h ([5]; ref Wilson et al., 2013): low nanomolar range
3) Fold change (72 h/120 h) [4]: 6.3
activity at 2 µg/mL [4, 16]: 7.68%
activity at 2 µg/mL [4, 28]: 8.86%
activity at 2 µg/mL [4, 29]: 6.5%

spiramycin
IC50 [5, 27]: ≥ 5000 nM
IC50 at more than 96 h ([5]; ref Wilson et al., 2013): low nanomolar range

C=C[C@]1(C)C[C@@H](OC(=O)CS[C@@H]2C[C@H]3CC[C@@H](C2)N3C)[C@]2(C)[C@H](C)CC[C@]3(CCC(=O)[C@H]32)[C@@H](C)[C@@H]1O [Retapamulin, reference compound]
activity in the screen against T. gondii [1, 8]: active against both P. falciparum and T. gondii
percent parasite growth at 2 µg/mL [1, 30]: 2.49%
percent parasite growth at 2 µg/mL [1, 31]: 9.45%
IC50 [1, 9]: 0.085 µM
Screen (T. gondii) ([1]; library screen at 2 μg/mL, RH strain, 72 h): A, A
activity in the screen against P. falciparum ([2]; 72 h): active against both P. falciparum and T. gondii
activity at 2 µg/mL [2, 32]: 8.14%
activity at 2 µg/mL [2, 33]: 8.89%
IC50 [2, 13]: > 1 µM
Screen (P. falciparum) ([2]; library screen at 2 μg/mL): A, A
selectivity index [3]: greater than 100
IC50 ([4]; Plasmodium falciparum): 106 nM
activity at 2 µg/mL [4, 34]: -0.64%
activity at 2 µg/mL [4, 35]: 3.58%

Micrococcin P1
IC50 [2, 21]: 0.02 ± 0.004 µM
IC50 [2, 22]: < 0.2 µM
IC50 ([5]; within 48 h, ref Rogers et al., 1998, read-out: IC50 in P. falciparum within 48 h): 35 nM

CCC[C@@H]1C[C@@H](C(=O)N[C@@H]([C@H]2O[C@H](SC)[C@H](O)[C@@H](O)[C@H]2O)[C@H](C)Cl)N(C)C1 [clindamycin]
IC50 [5, 27]: ≥ 5000 nM
IC50 at more than 96 h ([5]; ref Wilson et al., 2013): low nanomolar range

CC[C@H]1OC(=O)[C@H](C)[C@@H](O[C@H]2C[C@@](C)(OC)[C@@H](O)[C@H](C)O2)[C@H](C)[C@@H](O[C@@H]2O[C@H](C)C[C@H](N(C)C)[C@H]2O)[C@](C)(O)C[C@@H](C)/C(=N\OCOCCOC)[C@H](C)[C@@H](O)[C@]1(C)O [Roxithromycin, reference compound]
percent parasite growth at 2 µg/mL [1, 30]: 33.7%
percent parasite growth at 2 µg/mL [1, 31]: 33.3%
activity at 2 µg/mL [2, 10]: 30.9%
activity at 2 µg/mL [2, 32]: 34.6%
activity at 2 µg/mL [2, 33]: 27.2%
IC50 ([5]; 48 h, ref Min et al., 2007, read-out: IC50 at 48 h): ~4000 nM
IC50 ([5]; increased treatment duration, ref Min et al., 2007, read-out: IC50 with increased treatment duration): 1000 to 2000 nM
3) Fold change (72 h/120 h) [4]: 3.6
activity at 2 µg/mL [4, 16]: 8.49%
activity at 2 µg/mL [4, 34]: 18.3%
activity at 2 µg/mL [4, 35]: -1.36%

CC[C@H]1OC(=O)[C@H](C)[C@@H](O[C@H]2C[C@@](C)(OC)[C@@H](O)[C@H](C)O2)[C@H](C)[C@@H](O[C@@H]2O[C@H](C)C[C@H](N(C)C)[C@H]2O)[C@](C)(O)C[C@@H](C)CN(C)[C@H](C)[C@@H](O)[C@]1(C)O [Azithromycin, reference compound]
percent parasite growth at 2 µg/mL [1, 23]: 41.8%
percent parasite growth at 2 µg/mL [1, 24]: 36%
activity at 2 µg/mL [2, 10]: 56.2%
activity at 2 µg/mL [2, 25]: 59.3%
activity at 2 µg/mL [2, 26]: 53.1%
IC50 [5, 27]: ≥ 5000 nM
IC50 at more than 96 h ([5]; ref Wilson et al., 2013): low nanomolar range
3) Fold change (72 h/120 h) [4, 15]: 6.4
activity at 2 µg/mL [4, 16]: 8.77%
activity at 2 µg/mL [4, 28]: 17.2%
activity at 2 µg/mL [4, 29]: 0.35%

C=C(NC(=O)C(=C)NC(=O)c1csc(C2=N[C@@H]3c4csc(n4)[C@H]4NC(=O)c5csc(n5)[C@H]([C@](C)(O)[C@@H](C)O)NC(=O)[C@H]5CSC(=N5)/C(=C/C)NC(=O)[C@H]([C@@H](C)O)NC(=O)c5csc(n5)[C@]3(CC2)NC(=O)[C@H](C)NC(=O)C(=C)NC(=O)[C@H](C)NC(=O)[C@H]([C@@H](C)CC)N[C@@H]2C=Cc3c([C@H](C)O)cc(nc3[C@H]2O)C(=O)O[C@@H]4C)n1)C(N)=O [thiostrepton, reference compound]
percent parasite growth at 2 µg/mL ([1]; Toxoplasma gondii; T. gondii, 72 h, screen at 2 μg/mL, replicate 1; read-out: Tg_72h_%Growth_Rep1): 86.7%
percent parasite growth at 2 µg/mL ([1]; Toxoplasma gondii; T. gondii, 72 h, screen at 2 μg/mL, replicate 2; read-out: Tg_72h_%Growth_Rep2): 93.6%
activity at 2 µg/mL [2, 11]: 56.7%
activity at 2 µg/mL [2, 12]: 65.2%
IC50 ([5]; ref Aminake et al., 2011, Schoof et al., 2010, read-out: IC50 in Plasmodium): ~10000 nM
activity at 2 µg/mL [4, 17]: 60.6%
activity at 2 µg/mL [4, 18]: 35.5%
